Source: US5023265A, “Substituted 1-H-pyrrolopyridine-3-carboxamides” (Schering Corporation, priority 1990, dated 1991)
Where two headings read alike, the source gives them in different places.

Columns and labels:
cyclooxygenase = assay: Rat CO/LO Inhibition: cyclooxygenase metabolite HHT in rat pleural neutrophils; type: cell-based, male Wistar-Lewis rats; conditions: 5 M × 10^-5, rat neutrophils
Description: Male Wistar-Lewis rats were injected iv with 5 mg of BSA in 0.2 mL of pyrogen-free saline followed by an intrapleural injection of 500 μg of the IgG fraction of rabbit anti-BSA in 0.2 mL of pyrogen-free saline, all under light anesthesia. After 4 hours the pleural cavity exudate, consisting of 85-95% neutrophils, was removed. Neutrophils were isolated from the pleural exudates by centrifugation at 4° C. for 10 minutes at 200 g. The cell pellet was briefly resuspended in 17 mM Tris-HCl buffer, pH 7.2, containing 0.75% NH4 Cl in order to lyse red cells, followed by centrifugation at 4° C. for 5 minutes at 200 g. The pelleted neutrophils were rewashed in 50 mM Tris-HCl, pH 7.4, containing 100 mM NaCl and 1 mM CaCl2, for a final cell count of approximately 5×10^6 intact neutrophils/0.1 mL of suspension.
Arachidonic acid metabolism via cyclooxygenase and 5-lipoxygenase was determined by preincubating the above cell suspension with the test compound for 4 minutes at room temperature and then adding 0.1 mL of the preincubated cells to assay tubes. The final assay mixture (0.1 mL) contained 40 μM [1-^14 C]arachidonic acid, 10 μM calcium A23187 ionophore and 0.1% BRIJ®56 detergent. After 1 minutes at 37° C., assays were terminated by the addition of 2.4 mL of a CHCl3 /CH3 OH (1:1 v/v) mixture and 0.9 mL of 0.1% HCOOH. The suspension was vortexed, immediately cooled on ice, and centrifuged and the organic layer withdrawn. The extract was evaporated and resuspended in 0.1 mL of CHCl3 /CH3 OH (1:2, v/v) for spotting on silica gel TLC plates (without gypsum). Development was with petroleum ether/diethylether/acetic acid (40:60:1, v/v/v). Products were located by autoradiography and the appropriate regions scraped and counted in a liquid scintillation counter. The 5-lipoxygenase metabolite 5-hydroxy-6,8,11,14-eicosatetraenoic acid (5-HETE) and the cyclooxygenase metabolite 12-hydroxy-[…] (HHT) were identified by cochromatography with authentic standards on TLC plates. Results are reported as percent inhibition of cyclooxygenase and lipoxygenase metabolite formation. (Myers, R. F.; Siegel, M. I., Biochem. Biophys. Res. Commun., 1983, 112, 586.) Results with representative compounds of the invention are shown in Columns 10, 11 and 12 of Table 1 below.

[1] = test system: Reversed Passive Arthus Reaction (RPAR) in the rat paw; assay: RPAR-Paw Assay (Reversed Passive Arthus Reaction, rat paw); type: in vivo, male Wistar/Lewis inbred albino rats; conditions: oral, paw volume 2 hours postchallenge, read-out: RPAR-Paw % Inhib.
Description: In order to determine the antiinflammatory activity by the reverse passive Arthus response, male Wistar/Lewis inbred albino rats weighing 180-200 g were used. The rats were housed three animals per cage and fasted 24 hours prior to and during the study. Water was allowed ad libitum.
All reagents and drugs were prepared prior to the study. Crystallized and lyophilized bovine serum albumin (BSA) was solubilized in cold, sterile, pyrogen-free saline (PFS), 10 mg/mL. Lyophylized antibovine serum albumin (anti-BSA), the IgG fraction, was suspended or solubilized in an aqueous solution of methylcellulose (MC) with a homogenizer prior to administration.
One hour prior to sensitization with BSA, groups of animals (minimum six per group) were given drug in MC by gavage according to body weight (1.0 mL/100 g). Controls were given MC alone, and a drug standard, indomethacin, was usually included in each assay. Drugs were prepared so as to provide a dose for a 200 g animal, which was equivalent to the milligram per kilogram dose for the experiment. Each rat received an oral dose in a volume of approximately 2.0 mL. One hour after dosing, the animals were lightly anesthetized with ether and "sensitized" by injection into the penile vein with 0.2 mL of PFS containing 1 mg of BSA. One hour later, the animals were "challenged" in the right hind paw with subplantar injections of 0.2 mL PFS pyrogen-free salin containing 0.1 mg of anti-BSA bovine serum albumin. Immediately after the subplantar injections, the right hand paw was immersed (to the lateral maleolus) into the mercury well of a plethysmograph. The volume of mercury displaced was converted to weight and recorded. This value was considered to be the control reading for the animal. Paw volumes were also recorded with a plethysmograph during the development of the inflammation at 2 hours postchallenge.
Results were expressed by the change in paw volume from the control reading for each animal to that recorded 2 hours postchallenge. All drug-treated groups were compared to the MC control for significant differences by using analysis of variance (Duncan and Dunnetts). Differences from control in drug-treated groups were expressed as percent inhibition.
In order to determine the dose required to inhibit the inflammatory response by 50% (ED50), a minimum of three and a maximum of five points were included in the assay. The ED50 and the relative potency to a drug standard, indomethacin, were determined by linear regression analysis. (J. Med. Chem., 1984, Vol. 27, No. 1, 27). Results for representative compounds of the invention are shown in Columns 3 and 4 of Table 1 below.

[2] = test system: Reversed Passive Arthus Reaction (RPAR) in the rat pleural cavity; assay: RPAR-Pleural Cavity Assay; type: in vivo, male rats; conditions: for inhibition in vivo at 25 mg/kg / inhibition in vivo at 50 mg/kg: Rattus norvegicus, 4 hours
Description: RPAR-Pleural Cavity Assay
Groups of 4 male rats were injected in the penile vein with antigen (1 mg BSA in 0.2 mL of saline per rat) and 0.5 hour later injected in the pleural cavity with antibody (1.0 mg antibody protein in the IgG fraction of rabbit anti-BSA in 0.2 mL). […] After 4 hours the animals were killed with CO2, and the pleural cavities were opened and the exudate drained into a graduated conical glass centrifuge tube containing indomethacin (1.8 μg) and nordihydroguaiaretic acid (NDGA) (15 μg) to block ex vivo metabolite synthesis. The volume of the exudate was measured. The cavity was then washed out with saline-EDTA to achieve a final volume of 5.0 mL. The number of cells were determined in a Coulter Counter. The cells were spun-down (1000×g) and the exudate supernatant was added to 4 volumes of 95% ethanol and samples were kept on ice for 30 minutes. After removal of the protein precipitate (2,500×g) the ethanol extract of the exudate was dried under N2 and then stored at -20° C. For radioimmunoassay (RIA) analysis the samples were redissolved in water to a volume of 1 mL per rat. Utilizing internally spiked samples, recovery of TXB2 (tritiated thromboxane B2) and LTE4 (tritiated leukotriene-E4) from exudates was determined to be 84±2% (SEM) and 89±2% (N=4), respectively. Exudate samples were directly assayed in duplicate with the commercial ^3 H-TXB2 RIA kit from New England Nuclear and the ^3 H-LTC4 /D4 /E4 kit from Amersham. The assay was validated using reversed-phase HPLC analysis of LTs in the standard procedure described by M. W. Musch, R. W. Bryant, C. Coscollaela, R. F. Myers and M. I. Siegel, Prostaglandins, Vol. 29, pp 405-430 (1985). Samples of ethanol exudate extract were "spiked" with ^3 H-LTs to follow HPLC purification and recovery.

[3] = test system: Adjuvant-Induced Arthritis in Rats; assay: Adjuvant-Induced Arthritis in Rats (AAR); type: in vivo; conditions: Rattus norvegicus, 504 h; dosed 1 hour prior to adjuvant, then 21 consecutive days
[4] = read-out: RPAR-Pleural Cavity % Inhibition Cells
[5] = exudate volume, read-out: RPAR-Pleural Cavity % Inhibition Fluid
[6] = 50 mg/kg, read-out: RPAR-Pleural Cavity % Inhibition Cells
[7] = 50 mg/kg, exudate volume, read-out: RPAR-Pleural Cavity % Inhibition Fluid

Row | SMILES | Cyclooxygenese/lipoxygenese % Inhib. HHT (cyclooxygenase) | inhibition in vivo at 25 mg/kg [1] | RPAR-Pleural Cavity % Inhibition LTE4 ([2]; 50 mg/kg, LTE4 in exudate by RIA) | RPAR-Pleural Cavity % Inhibition TXB2 ([2]; 50 mg/kg, TXB2 in exudate by RIA) | inhibition in vivo at 25 mg/kg [2, 4] | inhibition in vivo at 25 mg/kg [2, 5] | inhibition in vivo at 50 mg/kg [2, 6] | inhibition in vivo at 50 mg/kg [2, 7] | ED50 [3] | inhibition in vivo at 50 mg/kg [1]
1 | O=C(Nc1ccccc1)c1c(O)n(-c2ccccc2)c2ncccc12 | 93% | 60% | 59% | 100% | 56% | 49% | 61% | 27% | 9 mg/kg | 
2 | O=C(Nc1ccccc1)c1c(O)n(-c2cccc(C(F)(F)F)c2)c2ncccc12 | 56% |  |  |  | 0% | 0% |  |  |  | 60%
3 | CC(C)(C)n1c(O)c(C(=O)Nc2ccccc2)c2cccnc21 |  | 36% |  |  | 41% | 26% |  |  |  | 
4 | O=C(Nc1ccccn1)c1c(O)n(-c2ccccc2)c2ncccc12 | 78% |  |  |  |  |  |  |  |  | 26%
5 | O=C(Nc1ccccc1)c1c(O)n(-c2ccc(Cl)cc2)c2ncccc12 | 96% |  |  |  | 51% | 18% |  |  |  | 56%
6 | O=C(Nc1cccc(C(F)(F)F)c1)c1c(O)n(-c2ccccc2)c2ncccc12 | 60% | 41% |  |  | 22% | 0% |  |  |  | 
7 | O=C(Nc1ccc(F)cc1F)c1c(O)n(-c2ccccc2)c2ncccc12 | 96% |  |  |  |  |  |  |  |  | 33%
8 | O=C(Nc1ccccc1)c1c(O)n(Cc2ccccc2)c2ncccc12 | 34% | 42% |  |  | 36% | 76% |  |  | 33 mg/kg | 
9 | Cc1cc(NC(=O)c2c(O)n(-c3ccccc3)c3ncccc23)no1 | 45% | 10% |  |  | 0% | 0% |  |  |  | 
10 | O=C(Nc1ccccc1)c1c(O)[nH]c2ncccc12 | 0% | 22% |  |  |  |  |  |  |  | 
11 | COc1ccc(NC(=O)c2c(O)n(-c3ccccc3)c3ncccc23)cc1 |  | 42% |  |  | 28% | 27% |  |  |  | 
12 | CCCCNC(=O)c1c(O)n(-c2ccccc2)c2ncccc12 | 44% | 29% |  |  | 19% | 0% |  |  |  | 
13 | O=C(NCc1ccccc1)c1c(O)n(-c2ccccc2)c2ncccc12 | 34% | 0% |  |  | 0% | 0% |  |  |  | 
14 | O=C(Nc1ccccc1)c1c(O)n(Cc2ccc(F)cc2)c2ncccc12 | 57% | 32% |  |  | 30% | 46% |  |  |  | 
15 | CC(C)n1c(O)c(C(=O)Nc2ccccc2)c2cccnc21 |  |  |  |  | 34% | 44% | 65% | 57% |  | 
16 | O=C(O)c1cc(NC(=O)c2c(O)n(-c3ccccc3)c3ncccc23)ccc1O |  | 4% |  |  | 0% | 0% |  |  |  | 
17 | CC(C)(C)NC(=O)c1c(O)n(-c2ccccc2)c2ncccc12 |  | 49% |  |  | 66% | 23% |  |  |  | 
18 | CC(C)c1ccc(-n2c(O)c(C(=O)Nc3ccccc3)c3cccnc32)cc1 |  | 34% |  |  | 9% | 8% |  |  |  | 
19 | Cn1c(O)c(C(=O)Nc2ccccc2)c2cccnc21 | 0% |  |  |  | 45% | 5% |  |  |  | 
